Experimental data as given in patent publication US12258329B2 (Merck Sharp & Dohme LLC, priority 2018, dated 2025).

tested on: infected PBMCs (VSV-G pseudotyped HIV virus VSV-G/pNLG1-P2A-ΔEnv); experiment: cells; assay type: cell-based, human; details: Homo sapiens, PBMC, read-out: TACK EC50

| Compound | EC50 |
| --- | --- |
| Cc1nc(C)c(Cn2cnc(C(F)(F)C(F)(F)F)c(Oc3cc(Cl)cc(C#N)c3Cl)c2=O)c(=O)[nH]1 [Example 80, 2,5-dichloro-3-((1-((2,4-dimethyl-6-oxo-1,6-dihydropyrimidin-5-yl)methyl)-6-oxo-4-(perfluoroethyl)-1,6-dihydropyrimidin-5-yl)oxy)benzonitrile] | 340 nM |
| Cc1nc(C)c(Cn2cnc(C(F)(F)C(F)F)c(Oc3cc(C(F)(F)F)cc(C#N)c3Cl)c2=O)c(=O)[nH]1 [Example 94, 2-chloro-3-((1-((2,4-dimethyl-6-oxo-1,6-dihydropyrimidin-5-yl)methyl)-6-oxo-4-(1,1,2,2-tetrafluoroethyl)-1,6-dihydropyrimidin-5-yl)oxy)-5-(trifluoromethyl)benzonitrile] | 492 nM |
| COC(=O)CCc1nc(C)c(Cn2cnc(C(F)(F)C(F)(F)F)c(Oc3cc(Cl)cc(C#N)c3F)c2=O)c(=O)[nH]1 [Example 56, Methyl 3-(5-((5-(5-chloro-3-cyano-2-fluorophenoxy)-6-oxo-4-(perfluoroethyl)pyrimidin-1 (6H)-yl)methyl)-4-methyl-6-oxo-1,6-dihydropyrimidin-2-yl)propanoate] | 161 nM |
| Cc1nc(C)c(Cn2cnc(C(C)(F)F)c(Oc3c(C)cc(C#N)cc3C)c2=O)c(=O)[nH]1 [Example 11, 4-((4-(1,1-difluoroethyl)-1-((2,4-dimethyl-6-oxo-1,6-dihydropyrimidin-5-yl)methyl)-6-oxo-1,6-dihydropyrimidin-5-yl)oxy)-3,5-dimethylbenzonitrile] | 267 nM |
| Cc1nc(C)c(Cn2cnc(C(F)(F)C(F)F)c(Oc3cc(C(F)F)cc(C#N)c3C)c2=O)c(=O)[nH]1 [Example 66, 5-(difluoromethyl)-3-((1-((2,4-dimethyl-6-oxo-1,6-dihydropyrimidin-5-yl)methyl)-6-oxo-4-(1,1,2,2-tetrafluoroethyl)-1,6-dihydropyrimidin-5-yl)oxy)-2-methylbenzonitrile] | 262 nM |
| Cc1nc(C)c(Cn2cnc(C(F)(F)C(F)F)c(Oc3cc(Cl)cc(C#N)c3N)c2=O)c(=O)[nH]1 [Example 27, 2-amino-5-chloro-3-((1-((2,4-dimethyl-6-oxo-1,6-dihydropyrimidin-5-yl)methyl)-6-oxo-4-(1,1,2,2-tetrafluoroethyl)-1,6-dihydropyrimidin-5-yl)oxy)benzonitrile] | 451 nM |
| Cc1nc(C)c(Cn2cnc(C(F)(F)F)c(Oc3cc(Cl)cc(C#N)c3F)c2=O)c(=O)[nH]1 [Example 92, 5-chloro-3-((1-((2,4-dimethyl-6-oxo-1,6-dihydropyrimidin-5-yl)methyl)-6-oxo-4-(trifluoromethyl)-1,6-dihydropyrimidin-5-yl)oxy)-2-fluorobenzonitrile] | 284 nM |
| Cc1nc(C)c(Cn2cnc(C(C)(F)F)c(Oc3c(C)cc(C#N)cc3C(F)(F)F)c2=O)c(=O)[nH]1 [Example 16, 4-((4-(1,1-difluoroethyl)-1-((4-hydroxy-2,6-dimethylpyrimidin-5-yl)methyl)-6-oxo-1,6-dihydropyrimidin-5-yl)oxy)-3-methyl-5-(trifluoromethyl)benzonitrile] | 199 nM |
| Cc1cc(C#N)cc(Oc2c(C(F)(F)C(F)(F)F)ncn(Cc3c(C)nc(C)[nH]c3=O)c2=O)c1 [Example 88] | 397 nM |
| CCc1cc(C#N)c(F)c(Oc2c(C(F)(F)C(F)F)ncn(Cc3c(C)nc(C)[nH]c3=O)c2=O)c1 [Example 42, 3-((1-((2,4-dimethyl-6-oxo-1,6-dihydropyrimidin-5-yl)methyl)-6-oxo-4-(1,1,2,2-tetrafluoroethyl)-1,6-dihydropyrimidin-5-yl)oxy)-5-ethyl-2-fluorobenzonitrile] | 308 nM |
| Cc1nc(C(C)O)[nH]c(=O)c1Cn1cnc(C(F)(F)C(F)F)c(Oc2cc(C(F)F)cc(C#N)c2C)c1=O (single isomer, unassigned) [Example 53, 5-(difluoromethyl)-3-((1-((2-(1-hydroxyethyl)-4-methyl-6-oxo-1,6-dihydropyrimidin-5-yl)methyl)-6-oxo-4-(1,1,2,2-tetrafluoroethyl)-1,6-dihydropyrimidin-5-yl)oxy)-2-methylbenzonitrile] | 392 nM |
| Cc1cc(C#N)cc(C)c1Oc1c(C(F)(F)C(F)F)ncn(Cc2c(C)nc(CCCO)[nH]c2=O)c1=O [Example 50, 4-((1-((2-(3-hydroxypropyl)-4-methyl-6-oxo-1,6-dihydropyrimidin-5-yl)methyl)-6-oxo-4-(1,1,2,2-tetrafluoroethyl)-1,6-dihydropyrimidin-5-yl)oxy)-3,5-dimethylbenzonitrile] | 250 nM |
| COCc1nc(C)c(Cn2cnc(C(F)(F)C(F)F)c(Oc3cc(C(F)F)cc(C#N)c3C)c2=O)c(=O)[nH]1 [Example 51, 5-(difluoromethyl)-3-((1-((2-(methoxymethyl)-4-methyl-6-oxo-1,6-dihydropyrimidin-5-yl)methyl)-6-oxo-4-(1,1,2,2-tetrafluoroethyl)-1,6-dihydropyrimidin-5-yl)oxy)-2-methylbenzonitrile] | 395 nM |
| Cc1nc(C)c(Cn2cnc(C(F)(F)C(F)(F)F)c(Oc3cc(Cl)cc(C#N)c3C)c2=O)c(=O)[nH]1 [Example 72, 5-chloro-3-((1-((2,4-dimethyl-6-oxo-1,6-dihydropyrimidin-5-yl)methyl)-6-oxo-4-(perfluoroethyl)-1,6-dihydro-pyrimidin-5-yl)oxy)-2-methylbenzonitrile] | 377 nM |
| Cc1nc(N)c(Cn2cnc(C(F)(F)C(F)(F)F)c(Oc3cc(Cl)cc(C#N)c3F)c2=O)c(=O)[nH]1 [Example 38, 3-((1-((4-amino-2-methyl-6-oxo-1,6-dihydropyrimidin-5-yl)methyl)-6-oxo-4-(perfluoroethyl)-1,6-dihydropyrimidin-5-yl)oxy)-5-chloro-2-fluorobenzonitrile] | 481 nM |
| Cc1nc(C)c(Cn2cnc(C(C)(F)F)c(Oc3cc(Cl)cc(C#N)c3Cl)c2=O)c(=O)[nH]1 [Example 3, 2,5-dichloro-3-((4-(1,1-difluoroethyl)-1-((2,4-dimethyl-6-oxo-1,6-dihydropyrimidin-5-yl)methyl)-6-oxo-1,6-dihydropyrimidin-5-yl)oxy)benzonitrile] | 417 nM |
| Cc1nc(C)c(Cn2cnc(C(F)(F)C(F)(F)F)c(Oc3cccc(C#N)c3C)c2=O)c(=O)[nH]1 [Example 74, 3-((1-((2,4-dimethyl-6-oxo-1,6-dihydropyrimidin-5-yl)methyl)-6-oxo-4-(perfluoroethyl)-1,6-dihydropyrimidin-5-yl)oxy)-2-methylbenzonitrile] | 484 nM |
| Cc1nc(N)c(Cn2cnc(C(F)(F)C(F)(F)F)c(Oc3cc(C(F)F)cc(C#N)c3C)c2=O)c(=O)[nH]1 [Example 37, 3-((1-((4-amino-2-methyl-6-oxo-1,6-dihydropyrimidin-5-yl)methyl)-6-oxo-4-(perfluoroethyl)-1,6-dihydropyrimidin-5-yl)oxy)-5-(difluoromethyl)-2-methylbenzonitrile] | 114 nM |
| Cc1nc(C)c(Cn2cnc(C(C)(F)F)c(Oc3cc(C(F)F)cc(C#N)c3C)c2=O)c(=O)[nH]1 [Example 6, 3-((4-(1,1-difluoroethyl)-1-((2,4-dimethyl-6-oxo-1,6-dihydropyrimidin-5-y1)methyl)-6-oxo-1,6-dihydropyrimidin-5-yl)oxy)-5-(difluoromethyl)-2-methylbenzonitrile] | 201 nM |
| Cc1nc(C)c(Cn2cnc(C(F)(F)F)c(Oc3cc(Cl)cc(C#N)c3Cl)c2=O)c(=O)[nH]1 [Example 90, 2,5-dichloro-3-((1-((2,4-dimethyl-6-oxo-1,6-dihydropyrimidin-5-yl)methyl)-6-oxo-4-(trifluoromethyl)-1,6-dihydropyrimidin-5-yl)oxy) benzonitrile] | 489 nM |
| Cc1nc(C)c(Cn2cnc(C(F)(F)CF)c(Oc3cc(C(F)F)cc(C#N)c3C)c2=O)c(=O)[nH]1 [Example 5, 5-(difluoromethyl)-3-((1-((2,6-dimethyl-4-oxo-4,5-dihydropyrimidin-5-yl)methyl)-6-oxo-4-(1,1,2-trifluoroethyl)-1,6-dihydropyrimidin-5-yl)oxy)-2-methylbenzonitrile] | 187 nM |
| Cc1nc(C)c(Cn2cnc(C(F)(F)F)c(Oc3cc(C(F)F)cc(C#N)c3C)c2=O)c(=O)[nH]1 [Example 8, 5-(difluoromethyl)-3-((1-((2,4-dimethyl-6-oxo-1,6-dihydropyrimidin-5-y1)methyl)-6-oxo-4-(trifluoromethyl)-1,6-dihydropyrimidin-5-y1)oxy)-2-methylbenzonitrile] | 252 nM |
| Cc1nc(C)c(Cn2cnc(C(F)(F)C(F)F)c(Oc3cc(C#N)cc(C(F)F)c3)c2=O)c(=O)[nH]1 [Example 69, 3-(difluoromethyl)-5-((1-((2,4-dimethyl-6-oxo-1,6-dihydropyrimidin-5-yl)methyl)-6-oxo-4-(1,1,2,2-tetra-fluoroethyl)-1,6-dihydropyrimidin-5-yl)oxy)benzonitrile] | 340 nM |
| Cc1nc(C(F)F)c(Cn2cnc(C(F)(F)C(F)(F)F)c(Oc3cc(C(F)F)cc(C#N)c3C)c2=O)c(=O)[nH]1 [Example 65, 5-(difluoromethyl)-3-((1-((4-(difluoromethyl)-2-methyl-6-oxo-1,6-dihydropyrimidin-5-yl)methyl)-6-oxo-4-(perfluoroethyl)-1,6-dihydropyrimidin-5-yl)oxy)-2-methylbenzonitrile] | 382 nM |
| Cc1ncc(Cn2cnc(C(F)(F)C(F)F)c(Oc3cc(C#N)cc(C(F)F)c3)c2=O)c(=O)[nH]1 [Example 2, 3-(difluoromethyl)-5-((1-((2-methyl-6-oxo-1,6-dihydropyrimidin-5-yl)methyl)-6-oxo-4-(1,1,2,2-tetrafluoroethyl)-1,6-dihydropyrimidin-5-yl)oxy)benzonitrile] | 411 nM |
| Cc1nc(COc2ncccn2)[nH]c(=O)c1Cn1cnc(C(C)(F)F)c(Oc2cc(Cl)cc(C#N)c2F)c1=O [Example 24, 5-chloro-3-((4-(1,1-difluoroethyl)-1-((4-methyl-6-oxo-2-((pyrimidin-2-yloxy)methyl)-1,6-dihydropyrimidin-5-yl)methyl)-6-oxo-1,6-dihydropyrimidin-5-yl)oxy)-2-fluorobenzonitrile] | 339 nM |
| Cc1nc(C2CC2)c(Cn2cnc(C(F)(F)C(F)F)c(Oc3cc(C(F)F)cc(C#N)c3C)c2=O)c(=O)[nH]1 [Example 62] | 406 nM |

same assay, conditions: read-out: TACK EC50

| Compound | EC50 |
| --- | --- |
| Cc1nc(C)c(Cn2cnc(C(C)F)c(Oc3cc(Cl)cc(C#N)c3F)c2=O)c(=O)[nH]1 (single isomer, unassigned) [Example 31] | 397 nM |
